One may read the IC50 as the point on the concentration scale where inhibition reaches its midpoint. High values mean lower potency, low ones higher potency. In general, EC50 refers to the concentration giving half of the maximal effect.

One experiment addresses DGKζ (Homo sapiens (Human), UniProt Q13574). The experiment is described as follows: Assay 1 or 2: In Vitro DGK Inhibition Assays (DGKζ LIPGLO, extruded liposome). The experiment is classed as biochemical. The settings on record: extruded liposome substrate, 150 μM ATP. The protocol: (§1) Assay 1: In Vitro DGK Inhibition Assays—Method A
(§2) The DGKα and DGKζ reactions were performed using either extruded liposome (DGKα and DGKζ LIPGLO assays) or detergent/lipid micelle substrate (DGKα and DGKζ assays). The reactions were carried out in 50 mM MOPS pH 7.5, 100 mM NaCl, 10 mM MgCl2, 1 μM CaCl2), and 1 mM DTT (assay buffer). The reactions using a detergent/lipid micelle substrate also contained 50 mM octyl B-D-glucopyranoside. The lipid substrate concentrations were 11 mM PS and 1 mM DAG for the detergent/lipid micelle reactions. The lipid substrate concentrations were 2 mM PS, 0.25 mM DAG, and 2.75 mM PC for the extruded liposome reactions. The reactions were carried out in 150 μM ATP. The enzyme concentrations for the DGKα and DGKζ were 5 nM
(§3) The compound inhibition studies were carried out as follows: 50 nL droplets of each test compound (top concentration 10 mM with 11 point, 3-fold dilution series for each compound) solubilized in DMSO were transferred to wells of a white 1536 well plate (Corning 3725). A 5 mL enzyme/substrate solution at 2× final reaction concentration was prepared by combining 2.5 mL 4× enzyme solution (20 nM DGKα or DGKζ (prepared as described below) in assay buffer) and 2.5 mL of either 4× liposome or 4× detergent/lipid micelle solution (compositions described below) and incubated at room temperature for 10 minutes. Next, 1 μL 2× enzyme/substrate solution was added to wells containing the test compound and reactions were initiated with the addition of 1 μL 300 uM ATP. The reactions were allowed to proceed for 1 hr, after which 2 μL Glo Reagent (Promega V9101) was added and incubated for 40 minutes. Next, 4 μL Kinase Detection Reagent was added and incubated for 30 minutes. Luminescence was recorded using an EnVision microplate reader. […] The compounds were evaluated at 11 concentrations to determine IC50.
(§4) The lipid composition was 5 mol % DAG (Avanti 8008110), 40 mol % PS (Avanti 840035P), and 55 mol % PC (Avanti 850457) at a total lipid concentration of 15.2 mg/mL for the 4× liposome solution. The PC, DAG, and PS were dissolved in chloroform, combined, and dried in vacuo to a thin film. The lipids were hydrated to 20 mM in 50 mM MOPS pH 7.5, 100 mM NaCl, 5 mM MgCl2, and were freeze-thawed five times. The lipid suspension was extruded through a 100 nm polycarbonate filter eleven times. […] The liposome preparation was stored at 4° C. for as long as four weeks.
(§5) Baculovirus amplification was achieved using infected Sf9 cells at 1:1500 virus/cell ratios, and grown for 65 hours at 27° C. post-transfection.
(§6) The cells were lysed using nitrogen cavitation method with a nitrogen bomb (Parr Instruments), and the lysates were clarified by centrifugation. […] The three steps column chromatography included nickel affinity resin capture (i.e. HisTrap FF crude, GE Healthcare), followed by size exclusion chromatography (i.e. HiLoad 26/600 Superdex 200 prep grade, GE Healthcare for DGK-alpha, and HiPrep 26/600 Sephacryl S 300_HR, GE Healthcare for DGK-zeta). The third step was ion exchange chromatography, and differed for the two isoforms. DGKα was polished using Q-Sepharose anion exchange chromatography (GE Healthcare). DGKζ was polished using SP Sepharose cation exchange chromatography (GE Healthcare). The proteins were delivered at concentrations of ≥2 mg/mL. The formulation buffers were identical for both proteins: 50 mM Hepes, pH 7.2, 500 mM NaCl, 10% v/v glycerol, 1 mM TCEP, and 0.5 mM EDTA.
Assay 2: In Vitro DGK Inhibition Assays—Method B
The DGKα and DGKζ reactions were performed using either extruded liposome (DGKα and DGKζ LIPGLO assays) or detergent/lipid micelle substrate (DGKα and DGKζ assays).

The target in the next experiment is DGKα (Homo sapiens (Human), UniProt P23743). The experiment is described as follows: Assay 1: In Vitro DGK Inhibition Assays, Method A (DGKα LIPGLO, extruded liposome). The experiment is classed as biochemical. The settings on record: extruded liposome substrate, 150 μM ATP. As to the method: as §1, §2, §3, §4, §5, §6
Chain of DGKα (P23743 whole entry): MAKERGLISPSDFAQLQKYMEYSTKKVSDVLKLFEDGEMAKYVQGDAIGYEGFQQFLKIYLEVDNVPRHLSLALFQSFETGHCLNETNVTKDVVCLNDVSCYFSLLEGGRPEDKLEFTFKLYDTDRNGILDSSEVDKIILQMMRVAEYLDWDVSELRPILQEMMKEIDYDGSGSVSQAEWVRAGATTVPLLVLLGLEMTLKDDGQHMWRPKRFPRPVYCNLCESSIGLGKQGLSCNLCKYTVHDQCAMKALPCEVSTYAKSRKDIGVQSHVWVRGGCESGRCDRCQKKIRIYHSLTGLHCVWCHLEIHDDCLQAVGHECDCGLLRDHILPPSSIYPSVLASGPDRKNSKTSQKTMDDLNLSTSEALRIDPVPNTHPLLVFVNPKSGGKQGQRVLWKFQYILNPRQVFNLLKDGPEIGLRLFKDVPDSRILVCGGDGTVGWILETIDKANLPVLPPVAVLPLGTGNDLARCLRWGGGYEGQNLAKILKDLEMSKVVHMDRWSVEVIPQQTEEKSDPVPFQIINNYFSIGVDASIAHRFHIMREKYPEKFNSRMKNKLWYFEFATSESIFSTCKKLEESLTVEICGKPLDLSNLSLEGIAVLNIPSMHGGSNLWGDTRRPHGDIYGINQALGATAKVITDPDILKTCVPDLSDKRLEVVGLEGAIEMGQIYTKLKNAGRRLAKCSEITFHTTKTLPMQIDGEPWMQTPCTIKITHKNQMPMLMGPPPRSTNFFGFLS
Another experiment relates to Human whole blood IFN-γ. The experiment is described as follows: Assay 10: Human Whole Blood IFN-γ Assay. The experiment is classed as cell-based. The conditions noted are these: anti-CD3 and anti-CD28 stimulation, 100% = 3 μM reference compound, read-out: INFg Whole Blood Normalized Agonist EC50. The protocol: Assay 10: Human Whole Blood IFN-γ Assay
Human venous whole blood (22.5 μL per well), obtained from healthy donors, was pre-treated with compounds for one hour at 37° C. in a humidified 95% air/5% CO2 incubator. The blood was stimulated with 2.5 μL anti-human CD3 and anti-CD28 mAb at a final concentration of 1 μg/mL each for 24 hours at 37° C. IFN-7 in the supernatants was measured using AlphLISA kit (Cat #AL217).

Where two headings read alike, the source gives them in different places.

Chain of DGKζ (Q13574 other isoform, or with tags, fused parts or gaps): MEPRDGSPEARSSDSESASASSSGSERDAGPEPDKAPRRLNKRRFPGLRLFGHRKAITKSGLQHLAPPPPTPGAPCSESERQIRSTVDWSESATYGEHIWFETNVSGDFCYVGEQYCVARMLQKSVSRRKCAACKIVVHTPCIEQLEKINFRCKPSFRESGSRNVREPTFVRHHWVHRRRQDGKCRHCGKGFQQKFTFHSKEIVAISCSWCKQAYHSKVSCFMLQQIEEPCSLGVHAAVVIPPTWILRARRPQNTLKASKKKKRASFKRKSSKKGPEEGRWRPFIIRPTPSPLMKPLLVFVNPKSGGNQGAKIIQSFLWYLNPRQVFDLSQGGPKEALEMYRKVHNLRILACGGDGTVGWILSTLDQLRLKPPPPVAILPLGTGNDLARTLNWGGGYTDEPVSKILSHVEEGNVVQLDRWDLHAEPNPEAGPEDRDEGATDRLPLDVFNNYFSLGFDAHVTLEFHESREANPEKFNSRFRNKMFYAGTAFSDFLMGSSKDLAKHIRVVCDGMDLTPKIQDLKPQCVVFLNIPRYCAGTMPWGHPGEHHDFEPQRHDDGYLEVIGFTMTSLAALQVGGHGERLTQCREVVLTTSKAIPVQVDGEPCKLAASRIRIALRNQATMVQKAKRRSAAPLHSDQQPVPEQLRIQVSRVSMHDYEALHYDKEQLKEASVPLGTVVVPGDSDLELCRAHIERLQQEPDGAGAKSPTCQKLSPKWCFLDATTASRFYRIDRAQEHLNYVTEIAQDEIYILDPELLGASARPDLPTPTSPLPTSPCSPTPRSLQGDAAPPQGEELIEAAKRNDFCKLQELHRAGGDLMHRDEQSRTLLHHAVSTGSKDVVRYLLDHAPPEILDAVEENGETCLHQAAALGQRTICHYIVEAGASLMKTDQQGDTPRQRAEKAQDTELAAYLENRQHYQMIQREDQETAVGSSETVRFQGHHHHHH

Consider `C[C@@H]1CN(c2cc(=O)n(C)c3ccc(C#N)nc23)[C@@H](C)CN1C(C(=O)N1CCCCC1)c1ccc(F)cc1` (single isomer, unassigned) [Example 11], for which the figures for the IC50 on DGKζ and on DGKα were 1.22 µM and 0.51 µM, respectively.
The matching figures for `C[C@@H]1CN(c2cc(=O)n(C)c3ccc(C#N)nc23)[C@@H](C)CN1C(CC(=O)NC(C)(C)C)c1ccc(F)cc1` (single isomer, unassigned) [Example 33]: 11.1 µM and 6.36 µM.
Consider `C[C@@H]1CN(c2cc(=O)n(C)c3ccc(C#N)nc23)[C@@H](C)CN1C(CC(=O)NC(C)(C)C)c1ccc(F)cc1` (single isomer, unassigned) [Example 34], for which the half-maximal inhibitory concentration (IC50) was 6.84 µM against DGKζ and 4.04 µM at DGKα.
Take `C[C@@H]1CN(c2cc(=O)n(C)c3ccc(C#N)nc23)[C@@H](C)CN1C(C(=O)NCC(F)F)c1ccc(F)cc1` (stereo partly drawn) [Example 5, 2-((2R,5S)-4-(6-cyano-1-methyl-2-oxo-1,2-dihydro-1,5-naphthyridin-4-yl)-2,5-dimethylpiperazin-1-yl)-N-(2,2-difluoroethyl)-2-(4-fluorophenyl)acetamide]: the IC50 was found to be 3.27 µM on DGKζ and 2.04 µM against DGKα.
The corresponding values for `C[C@@H]1CN(c2cc(=O)n(C)c3ccc(C#N)nc23)[C@@H](C)CN1C(C(=O)N1CCCCC1)c1ccc(F)cc1` (stereo partly drawn) [Example 12] are 6.68 µM and 5.12 µM.
With `C[C@@H]1CN(c2cc(=O)n(C)c3ccc(C#N)nc23)[C@@H](C)CN1C(C(=O)N1CCOCC1)c1ccc(F)cc1` (stereo partly drawn) [Example 17, 8-((2S,5R)-4-(1-(4-fluorophenyl)-2-morpholino-2-oxoethyl)-2,5-dimethylpiperazin-1-yl)-5-methyl-6-oxo-5,6-dihydro-1,5-naphthyridine-2-carbonitrile], the EC50 in the experiment on Human whole blood IFN-γ (24 hours) stood at 1.49 µM. The values for the half-inhibitory concentration (IC50) against DGKζ and at DGKα were 7.75 µM and 2.56 µM, respectively.
As to `C[C@@H]1CN(c2cc(=O)n(C)c3ccc(C#N)nc23)[C@@H](C)CN1C(C(=O)N1CCOCC1)c1ccc(F)cc1` (stereo partly drawn) [Example 18, 8-((2S,5R)-4-(1-(4-fluorophenyl)-2-morpholino-2-oxoethyl)-2,5-dimethylpiperazin-1-yl)-5-methyl-6-oxo-5,6-dihydro-1,5-naphthyridine-2-carbonitrile], the concentration for a half-maximal effect (EC50) in the experiment on Human whole blood IFN-γ (24 hours) stood at 20 µM. Further, the IC50 against DGKζ was determined as 42.9 µM; on DGKα it was 24.8 µM.
On to `C[C@@H]1CN(c2cc(=O)n(C)c3ccc(C#N)nc23)[C@@H](C)CN1C(C(=O)N1CCN(C)CC1)c1ccc(F)cc1` (stereo partly drawn) [Example 19, 8-((2S,5R)-4-(1-(4-fluorophenyl)-2-(4-methylpiperazin-1-yl)-2-oxoethyl)-2,5-dimethylpiperazin-1-yl)-5-methyl-6-oxo-5,6-dihydro-1,5-naphthyridine-2-carbonitrile], for which, in the experiment on Human whole blood IFN-γ (Homo sapiens, 24 h), the EC50 came out at 3.44 µM. For the same compound, the results for the IC50 against DGKζ and at DGKα were 172 µM and 37.1 µM, respectively.
Regarding `C[C@@H]1CN(c2cc(=O)n(C)c3ccc(C#N)nc23)[C@@H](C)CN1C(C(=O)N1CCN(C)CC1)c1ccc(F)cc1` (stereo partly drawn) [Example 20, 8-((2S,5R)-4-(1-(4-fluorophenyl)-2-(4-methylpiperazin-1-yl)-2-oxoethyl)-2,5-dimethylpiperazin-1-yl)-5-methyl-6-oxo-5,6-dihydro-1,5-naphthyridine-2-carbonitrile], the IC50 on DGKζ is 83.3 µM; against DGKα it was 253 µM.
With `C[C@@H]1CN(c2cc(=O)n(C)c3ccc(C#N)nc23)[C@@H](C)CN1C(C(=O)Nc1ccon1)c1ccc(F)cc1` (stereo partly drawn) [Example 29, 2-((2R,5S)-4-(6-cyano-1-methyl-2-oxo-1,2-dihydro-1,5-naphthyridin-4-yl)-2,5-dimethylpiperazin-1-yl)-2-(4-fluorophenyl)-N-(isoxazol-3-yl)acetamide], the EC50 in the experiment on Human whole blood IFN-γ (Homo sapiens, 24 h) stood at 3.75 µM. For the same compound, the IC50 on DGKζ is 2.44 µM; against DGKα, 5.57 µM.
With `C[C@@H]1CN(c2cc(=O)n(C)c3ccc(C#N)nc23)[C@@H](C)CN1C(C(=O)Nc1ccon1)c1ccc(F)cc1` (stereo partly drawn) [Example 30, 2-((2R,5S)-4-(6-cyano-1-methyl-2-oxo-1,2-dihydro-1,5-naphthyridin-4-yl)-2,5-dimethylpiperazin-1-yl)-2-(4-fluorophenyl)-N-(isoxazol-3-yl)acetamide], the IC50 was 0.14 µM on DGKζ and 0.02 µM at DGKα.
Regarding `CC(C)N(C)C(=O)CC(c1ccc(F)cc1)N1C[C@H](C)N(c2cc(=O)n(C)c3ccc(C#N)nc23)C[C@H]1C` (stereo partly drawn) [Example 42, 3-[(2R,5S)-4-(6-cyano-1-methyl-2-oxo-1,2-dihydro-1,5-naphthyridin-4-yl)-2,5-dimethylpiperazin-1-yl]-3-(4-fluorophenyl)-N-methyl-N-(propan-2-yl)propanamide], in the experiment with Human whole blood IFN-γ (24 hours), the EC50 is 1.37 µM. In addition, the half-maximal inhibitory concentration (IC50) at DGKζ is 4.12 µM; at DGKα it was 0.83 µM.
Turning to `C#CCCC1(CCCOC(=O)C(c2ccc(F)cc2)N2C[C@H](C)N(c3cc(=O)n(C)c4ccc(C#N)nc34)C[C@H]2C)N=N1` (stereo partly drawn) [Example 57, 3-(3-(but-3-yn-1-yl)-3H-diazirin-3-yl)propyl 2-((2R,5S)-4-(6-cyano-1-methyl-2-oxo-1,2-dihydro-1,5-naphthyridin-4-yl)-2,5-dimethylpiperazin-1-yl)-2-(4-fluorophenyl)acetate], the concentration for a half-maximal effect (EC50) in the experiment with Human whole blood IFN-γ (Homo sapiens, 24 h) worked out at 0.12 µM. Further, the half-maximal inhibitory concentration (IC50) on DGKζ is 0.19 µM; at DGKα it was 0.07 µM.
The corresponding values for `C[C@@H]1CN(c2cc(=O)n(C)c3ccc(C#N)nc23)[C@@H](C)CN1C(C(=O)OCCC1(C)N=N1)c1ccc(F)cc1` (stereo partly drawn) [Example 62, 2-(3-methyl-3H-diazirin-3-yl)ethyl 2-((2R,5S)-4-(6-cyano-1-methyl-2-oxo-1,2-dihydro-1,5-naphthyridin-4-yl)-2,5-dimethylpiperazin-1-yl)-2-(4-fluorophenyl)acetate] are 0.57 µM, 0.19 µM and 0.08 µM.
Consider `C[C@@H]1CN(c2cc(=O)n(C)c3ccc(C#N)nc23)[C@@H](C)CN1C(C(=O)NCCOCCOCCNC(=O)c1ccc2c(c1)C(=O)OC21c2ccc(O)cc2Oc2cc(O)ccc21)c1ccc(F)cc1` (stereo partly drawn) [Example 65, N-(2-(2-(2-(2-((2R,5S)-4-(6-cyano-1-methyl-2-oxo-1,2-dihydro-1,5-naphthyridin-4-yl)-2,5-dimethylpiperazin-1-yl)-2-(4-fluorophenyl)acetamido)ethoxy)ethoxy)ethyl)-3′,6′-dihydroxy-3-oxo-3H-spiro[isobenzofuran-1,9′-xanthene]-5-carboxamide], for which the half-maximal inhibitory concentration (IC50) against DGKζ is 56.6 µM; against DGKα, 96.5 µM.
On to `C[C@@H]1CN(c2cc(=O)n(C)c3ccc(C#N)nc23)[C@@H](C)CN1C(C(=O)OCCOCCOCCNC(=O)c1ccc2c(c1)C(=O)OC21c2ccc(O)cc2Oc2cc(O)ccc21)c1ccc(F)cc1` (stereo partly drawn) [Example 68, 2-(2-(2-(3′,6′-dihydroxy-3-oxo-3H-spiro[isobenzofuran-1,9′-xanthene]-5-carboxamido)ethoxy)ethoxy)ethyl 2-((2R,5S)-4-(6-cyano-1-methyl-2-oxo-1,2-dihydro-1,5-naphthyridin-4-yl)-2,5-dimethylpiperazin-1-yl)-2-(4-fluorophenyl)acetate], for which the figures for the 50% inhibitory concentration (IC50) at DGKζ and against DGKα were 0.41 µM and 0.16 µM, respectively.

For the origin of these results see patent US12454531B2, “Substituted piperazine derivatives useful as T cell activators” (BRISTOL-MYERS SQUIBB COMPANY, priority 2019, dated 2025).
